Results as given in the supplement of paper PMC10331698.
± gives the standard deviation of the averaged measurements.

Tests used:
Assay in all cases: level (log10 ratio to DMSO vehicle control); higher = higher biomarker level / cell amount than vehicle control
Conditions in all cases: in DMSO
[1] = compound: CCCCCCCCC(F)(F)C(F)(F)C(F)(F)C(F)(F)C(F)(F)C(F)(F)F [1-(Perfluorohexyl)octane]
Experimental: (§1)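 BioMAP Diversity Plus panel of 12 human primary cell co-culture systems (3C, 4H, LPS, SAg, BT, BF4T, BE3C, CASM3C, HDF3CGF, KF3CT, MyoF, Mphg). Compounds were added 1 h before stimulation and left for 24 h (MyoF 48 h; BT 72 h for soluble read-outs or 6 d for IgG). Biomarkers were read by ELISA, cytotoxicity by SRB, PBMC viability and proliferation by Alamar Blue. Each well value was divided by the mean of 8 DMSO control wells on the same plate and log10 transformed; duplicate blinded samples were tested at 4 concentrations.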

[2] = compound: C=CC(=O)OCCC(F)(F)C(F)(F)C(F)(F)C(F)(F)F [2-(Perfluorobutyl)ethyl acrylate]
Experimental: as §1

[3] = compound: N=C(N)C(F)(F)C(F)(F)C(F)(F)C(F)(F)C(F)(F)C(F)(F)C(F)(F)F [Perfluorooctanamidine]
Experimental: as §1

[4] = compound: O=C(O)C(F)(F)C(F)(F)C(F)(F)C(F)(F)C(F)(F)C(F)(F)C(F)(F)C(F)(F)C(F)(F)C(F)(F)C(F)(F)C(F)(F)F [Perfluorotridecanoic acid]
Experimental: as §1

[5] = compound: O=S(=O)(O)C(F)(F)C(F)(F)C(F)(F)C(F)(F)F [Perfluorobutanesulfonic acid]
Experimental: as §1

[6] = compound: O=C(O)C(F)(F)C(F)(F)C(F)(F)C(F)(F)C(F)(F)F [Perfluorohexanoic acid]
Experimental: as §1

Test System | level (log10) ([1]; 6700 nM) | level (log10) ([1]; 20000 nM) | level (log10) ([2]; 6700 nM) | level (log10) ([2]; 20000 nM) | level (log10) ([2]; 60000 nM) | level (log10) ([3]; 6700 nM) | level (log10) ([3]; 20000 nM) | level (log10) ([3]; 60000 nM) | level (log10) ([4]; 1500 nM) | level (log10) ([4]; 4400 nM) | level (log10) ([4]; 13000 nM) | level (log10) ([4]; 40000 nM) | level (log10) ([5]; 6700 nM) | level (log10) ([5]; 20000 nM) | level (log10) ([5]; 60000 nM) | level (log10) ([6]; 6700 nM) | level (log10) ([6]; 20000 nM) | level (log10) ([6]; 60000 nM)
3C:CD87/uPAR | -0.0145 ± 0.013 | -0.0075 ± 0.019 | 0.0065 ± 0.00071 | 0.0145 ± 0.005 | 0.004 ± 0.017 | 0.0265 ± 0.059 | 0.0135 ± 0.028 | 0.042 | 0.065 ± 0.025 | 0.0355 ± 0.039 | 0.066 ± 0.011 | 0.059 ± 0.016 | -0.007 ± 0.027 | -0.0075 ± 0.00071 | -0.0235 ± 0.022 | -0.0065 ± 0.0035 | -0.0115 ± 0.00071 | -0.01 ± 0.0099
3C:CXCL8/IL-8 | -0.005 ± 0.0028 | 0.0005 ± 0.019 | -0.0155 ± 0.015 | -0.02 ± 0.0085 | 0.003 ± 0.024 | 0.018 ± 0.011 | 0.022 ± 0.0085 | 0.08 | 0.017 ± 0.025 | -0.01 ± 0.017 | -0.144 ± 0.19 | -0.715 ± 0.14 | 0.0045 ± 0.00071 | 0.008 ± 0.021 | 0.071 ± 0.04 | -0.006 ± 0.0042 | 0.005 ± 0.0057 | 0.0635 ± 0.037
3C:CXCL9/MIG | 0.009 ± 0.023 | 0.017 ± 0.016 | 0.0135 ± 0.013 | -0.011 ± 0.0099 | -0.0025 ± 0.0035 | 0.007 ± 0.0071 | -0.0165 ± 0.0035 | 0.005 | 0.0055 ± 0.0035 | 0.0005 ± 0.00071 | 0.003 ± 0.0085 | 0.0035 ± 0.00071 | 0.009 ± 0.016 | 0.009 ± 0.017 | 0.0175 ± 0.0021 | -0.0065 ± 0.012 | -0.0045 ± 0.00071 | 0.0025 ± 0.012
3C:HLA-DR | 0.028 ± 0.03 | 0.0205 ± 0.019 | 0.035 ± 0.013 | 0.0285 ± 0.0035 | -0.046 ± 0.058 | 0.0025 ± 0.016 | -0.0295 ± 0.0064 | -0.035 | -0.011 ± 0.0028 | -0.0135 ± 0.011 | -0.021 ± 0.02 | -0.0095 ± 0.011 | -0.0015 ± 0.015 | -0.007 ± 0.0057 | -0.006 ± 0.013 | 0.002 ± 0.0042 | 0.004 ± 0.014 | -0.002 ± 0.0085
3C:Proliferation | -0.0125 ± 0.06 | -0.0035 ± 0.012 | -0.0445 ± 0.049 | -0.088 ± 0.028 | -0.304 ± 0.07 | -0.0395 ± 0.018 | -0.054 ± 0.028 | -0.194 | -0.056 ± 0.048 | -0.025 ± 0.0085 | -0.348 ± 0.38 | -0.811 ± 0.1 | -0.002 ± 0.0014 | 0.017 ± 0.031 | -0.0525 ± 0.023 | -0.0055 ± 0.012 | -0.006 ± 0.0028 | -0.01 ± 0.04
3C:SRB | 0.004 ± 0.021 | -0.005 ± 0.018 | 0.0005 ± 0.021 | 0.0035 ± 0.0092 | -0.0345 ± 0.0078 | 0.008 ± 0.016 | 0.0195 ± 0.019 | -0.054 | -0.017 ± 0.0085 | -0.0125 ± 0.0035 | -0.012 ± 0.016 | -0.0125 ± 0.028 | 0.004 ± 0.0099 | -0.0095 ± 0.0035 | -0.021 ± 0.0042 | -0.0065 ± 0.0078 | -0.011 ± 0.0057 | -0.001 ± 0.0028
4H:CCL2/MCP-1 | -0.0525 ± 0.019 | -0.0495 ± 0.021 | -0.0405 ± 0.028 | -0.043 ± 0.037 | 0.009 ± 0.11 | 0.0095 ± 0.011 | -0.0055 ± 0.0064 | 0.061 | 0.0035 ± 0.037 | -0.0025 ± 0.026 | -0.0095 ± 0.0092 | -0.033 ± 0.014 | -0.021 ± 0.0042 | -0.0095 ± 0.023 | -0.017 ± 0.018 | -0.0105 ± 0.00071 | -0.027 ± 0.0071 | 0.012 ± 0.021
4H:CCL26/Eotaxin-3 | -0.0025 ± 0.0021 | 0.004 ± 0.021 | -0.0355 ± 0.039 | -0.006 ± 0.0071 | 0.0135 ± 0.0078 | -0.006 ± 0.0042 | -0.033 ± 0.0042 | -0.118 | -0.0145 ± 0.018 | -0.0395 ± 0.033 | -0.056 ± 0.0071 | -0.0655 ± 0.033 | -0.0025 ± 0.054 | -0.001 ± 0.051 | -0.048 ± 0.028 | 0.0005 ± 0.005 | -0.004 ± 0.0099 | -0.015 ± 0.0071
4H:CD62P/P-selectin | 0.0245 ± 0.039 | -0.007 ± 0.016 | 0.0065 ± 0.064 | -0.064 ± 0.047 | -0.102 ± 0.036 | -0.0165 ± 0.012 | -0.007 ± 0.0085 | -0.032 | -0.0285 ± 0.016 | -0.017 ± 0.0085 | 0.0125 ± 0.013 | 0.021 ± 0.011 | -0.0155 ± 0.035 | 0.0045 ± 0.016 | -0.0085 ± 0.015 | 0.0235 ± 0.064 | 0.0555 ± 0.032 | 0.0255 ± 0.028
4H:CD87/uPAR | 0.027 ± 0.027 | 0.0155 ± 0.015 | -0.005 ± 0.038 | 0.0055 ± 0.0035 | 0.025 ± 0.0085 | 0.0455 ± 0.097 | 0.055 ± 0.028 | 0.146 | 0.0035 ± 0.028 | -0.03 ± 0.017 | -0.0175 ± 0.015 | -0.0515 ± 0.074 | 0.0115 ± 0.052 | 0.0235 ± 0.022 | 0.025 ± 0.021 | 0.0025 ± 0.042 | -0.002 ± 0.011 | 0.0205 ± 0.039
4H:CD106/VCAM-1 | 0.011 ± 0.04 | -0.005 | -0.0215 ± 0.013 | -0.0495 ± 0.056 | -0.123 ± 0.085 | 0.0015 ± 0.011 | -0.028 ± 0.016 | -0.132 | -0.028 ± 0.0071 | -0.065 ± 0.04 | -0.107 ± 0.0064 | -0.089 ± 0.018 | -0.024 ± 0.016 | -0.029 ± 0.028 | 0.001 ± 0.033 | -0.006 ± 0.028 | 0.0095 ± 0.00071 | 0.041 ± 0.045
4H:SRB | 0.0035 ± 0.019 | -0.002 ± 0.0042 | -0.003 ± 0.0085 | 0.0105 ± 0.021 | -0.0205 ± 0.016 | 0.0035 ± 0.0021 | -0.006 ± 0.0071 | -0.029 | -0.0115 ± 0.0064 | -0.022 ± 0.0014 | -0.054 ± 0.042 | -0.443 ± 0.037 | 0.0005 ± 0.0064 | 0.002 ± 0.0028 | 0 ± 0.0099 | -0.002 ± 0.0057 | -0.0105 ± 0.00071 | 0.0045 ± 0.015
4H:VEGFR2 | 0.0045 ± 0.022 | 0.0245 ± 0.0021 | 0.01 | -0.006 ± 0.017 | -0.0035 ± 0.037 | -0.0135 ± 0.023 | -0.023 ± 0.025 | 0.064 | 0.0375 ± 0.0078 | -0.0205 ± 0.037 | -0.0125 ± 0.1 | -0.257 ± 0.1 | -0.049 ± 0.04 | -0.0215 ± 0.026 | -0.012 ± 0.0071 | -0.003 ± 0.021 | -0.009 ± 0.014 | -0.001 ± 0.024
BE3C:CD54/ICAM-1 | 0.0045 ± 0.011 | -0.0025 ± 0.0021 | -0.0045 ± 0.0035 | -0.0175 ± 0.0064 | -0.037 ± 0.03 | -0.017 ± 0.0028 | -0.019 ± 0.0057 | 0.027 | 0.0015 ± 0.04 | -0.0285 ± 0.015 | -0.011 ± 0.0085 | 0.0035 ± 0.0021 | -0.0185 ± 0.0021 | -0.009 ± 0.0028 | -0.021 ± 0.0057 | 0.0065 ± 0.00071 | -0.0145 ± 0.0064 | -0.014 ± 0.013
BE3C:CD87/uPAR | 0.0085 ± 0.00071 | 0.017 ± 0.0099 | 0.014 ± 0.021 | 0.0125 ± 0.025 | -0.018 ± 0.0071 | -0.001 ± 0.014 | -0.0035 ± 0.057 | 0.083 | 0.012 ± 0.038 | -0.013 ± 0.0071 | 0.006 ± 0.018 | 0.0335 ± 0.03 | -0.035 ± 0.0028 | -0.044 ± 0.016 | -0.037 ± 0.027 | -0.002 ± 0.0085 | -0.0105 ± 0.00071 | 0.0205 ± 0.00071
BE3C:CXCL8/IL-8 | 0.0125 ± 0.052 | 0.068 ± 0.024 | 0.006 ± 0.025 | -0.0165 ± 0.06 | -0.016 ± 0.095 | 0.029 ± 0.042 | -0.026 ± 0.061 | -0.034 | -0.002 ± 0.045 | 0.01 ± 0.045 | -0.0215 ± 0.00071 | 0.0115 ± 0.00071 | 0.0075 ± 0.035 | 0.013 ± 0.028 | 0.0005 ± 0.0092 | 0.0095 ± 0.042 | 0.0135 ± 0.00071 | 0.017 ± 0.021
